Among the data in patent publication US20080269293A1, “PYRAZOLE DERIVATIVES AS ANTI-PLATELET AND ANTI-THROMBOTIC AGENTS” (Pfizer Inc., priority 2006, published 2008) are IC50 values, retold here.

The term IC50 denotes the concentration at which inhibition is half-maximal.

Where only a bound is given, the exact number is not on record here.

In this assay the target is T1, platelet P2Y1 receptor (Homo sapiens, UniProt P47900).
T1 construct: expressed in transfected cells
T1 sequence (P47900 whole entry): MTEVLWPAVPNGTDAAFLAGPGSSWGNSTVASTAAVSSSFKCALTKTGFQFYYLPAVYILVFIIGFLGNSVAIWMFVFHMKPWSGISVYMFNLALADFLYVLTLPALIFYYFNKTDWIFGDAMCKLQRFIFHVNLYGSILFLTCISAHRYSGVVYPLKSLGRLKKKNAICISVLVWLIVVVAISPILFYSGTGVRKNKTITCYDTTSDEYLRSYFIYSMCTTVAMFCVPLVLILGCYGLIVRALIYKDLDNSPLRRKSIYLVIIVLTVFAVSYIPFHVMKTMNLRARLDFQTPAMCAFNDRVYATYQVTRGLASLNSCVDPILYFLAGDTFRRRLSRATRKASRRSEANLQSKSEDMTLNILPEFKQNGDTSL
The experiment in a line: P2Y1 receptor binding assay ([β-33P]-2-thiomethyl ADP). As to conditions: binding of 0.3 nM [β-33P]-2-thiomethyl ADP, hP2Y1 expressing 132N1 cell membrane, 25° C., 60 minutes. Here is the method:
Conducting P2Y, Receptor Binding Assay
[β−^33P]-2-thiomethyl ADP (2100 Ci/mmol) was purchased from PerkinElmer, Protease Inhibitors Complete, EDTA-free, was purchased from Roche, and ADP (Adenosine diphosphate), MRS2179, and 2-thiomethy ADP (2-Me-S-ADP) were purchased from Sigma Chemical Co.
Binding of 0.3 nM [β-^33P]-2-thiomethyl ADP to platelet P2Y1 receptor in 132N1 cell membrane was carried out in triplicate at 25° C. with 96 well plate (Corning, 3365). Nonspecific binding was defined as binding in the presence of 1 μM of 2-Me-S-ADP. One […] of dimethyl sulfoxide (DMSO) or 1 μL of DMSO (Sigma-Aldrich, 472301) containing a test compound diluted to final assay concentrations of 0.1 nM to 1 mM were placed into each well of a Corning 96-well plate. A volume of 60 μL of buffer: 50 mM Tris pH 7.5 (Sigma, T-2194), 1 mM EDTA (Gibco, 15575-038) and 100 mM NaCl (Gibco, 200740-011) containing 0.3 nM [β-^33P]-2-thiomethyl ADP 40 μL of hP2Y1 expressing 132N1 cell membrane prep was added to each well. After incubation on shaker for 60 minutes, The contents of the wells are filtered and washed 8 times with Tomtec Cell Harvester through UniFilter 96, GF/B plates (PerkinElmer, 6005177) Forty five microliters […] Scintillation cocktail (Ultima-Flo-M) was added into each well and plates counted on a Trilux Microbeta Counter.
• 1. Add 1 μL DMSO or compounds into the wells according to the protocol. • 2. Add 60 μL incubation buffer with [β-^33P]-2-thiomethyl ADP into each well. • 3. Add 40 μL hP2Y1 expressing 132N1 cell membrance prep. Incubate 60 minutes on top of the shaker (IKA Shutter MTS4). • 4. Filter and wash 8× with Tomtec Cell Harvester through UniFilter GF/B plates (PerkinElmer, 6005177). • 5. Add 45 μL scintillation cocktail into each well and plates counted on a Trilux Microbeta Counter.
Take `Cc1cc(Oc2ccccc2NC(=O)Nc2ccc(OC(F)(F)F)cc2)n(-c2cc(Cl)ccc2Cl)n1` [Example 98, 1-(2-(1-(2,5-dichlorophenyl)-3-methyl-1H-pyrazol-5-yloxy)phenyl)-3-(4-(trifluoromethoxy)phenyl)urea]: the IC50 turned out to be 68 nM.
For the compound `Cc1cc(Oc2ccccc2NC(=O)Nc2ccc(-n3cccn3)cc2)n(-c2ccccc2Cl)n1` [Example 99, 1-(4-(1H-pyrazol-1-yl)phenyl)-3-(2-(1-(2-chlorophenyl)-3-methyl-1H-pyrazol-5-yloxy)phenyl)urea], the IC50 is above 10000 nM.
In turn, `Cc1cc(Oc2ccccc2NC(=O)Nc2ccc(-n3ccnc3)cc2)n(-c2ccccc2Cl)n1` [Example 100, 1-(4-(1H-imidazol-1-yl)phenyl)-3-(2-(1-(2-chlorophenyl)-3-methyl-1H-pyrazol-5-yloxy)phenyl)urea] returned an IC50 above 10000 nM.
Compound `CCc1ccccc1-n1nc(C)cc1Oc1ccccc1NC(=O)Nc1ccc(C#N)cc1` [Example 101, 1-(4-cyanophenyl)-3-(2-(1-(2-ethylphenyl)-3-methyl-1H-pyrazol-5-yloxy)phenyl)urea] returned an IC50 of 1020 nM.
Consider `CCc1ccccc1-n1nc(C)cc1Oc1ccccc1NC(=O)Nc1ccc(-c2cnco2)cc1` [Example 102, 1-(2-(1-(2-ethylphenyl)-3-methyl-1H-pyrazol-5-yloxy)phenyl)-3-(4-(oxazol-5-yl)phenyl)urea], for which the IC50 amounted to 1190 nM.
Compound `CCc1ccccc1-n1nc(C)cc1Oc1ccccc1NC(=O)Nc1ccc(OC)cc1` [Example 103, 1-(2-(1-(2-ethylphenyl)-3-methyl-1H-pyrazol-5-yloxy)phenyl)-3-(4-methoxyphenyl)urea] registered an IC50 of 564 nM.
Compound `CCc1ccccc1-n1nc(C)cc1Oc1ccccc1NC(=O)Nc1ccc(C(C)C)cc1` [Example 104, 1-(2-(1-(2-ethylphenyl)-3-methyl-1H-pyrazol-5-yloxy)phenyl)-3-(4-isopropylphenyl)urea] gave an IC50 of 22 nM.
Consider `CCc1ccccc1-n1nc(C)cc1Oc1ccccc1NC(=O)Nc1ccc(CN2CCCCC2)cc1` [Example 105, 1-(2-(1-(2-ethylphenyl)-3-methyl-1H-pyrazol-5-yloxy)phenyl)-3-(4-(piperidin-1-ylmethyl)phenyl)urea], for which the IC50 is above 10000 nM.
For `CCc1ccccc1-n1nc(C)cc1Oc1ccccc1NC(=O)Nc1ccc(F)cc1F` [Example 106, 1-(2,4-difluorophenyl)-3-(2-(1-(2-ethylphenyl)-3-methyl-1H-pyrazol-5-yloxy)phenyl)urea], the IC50 was determined as 287 nM.
The compound `CCc1ccccc1-n1nc(C)cc1Oc1ccccc1NC(=O)Nc1ccc(C(F)(F)F)cc1` [Example 107, 1-(2-(1-(2-ethylphenyl)-3-methyl-1H-pyrazol-5-yloxy)phenyl)-3-(4-(trifluoromethyl)phenyl)urea] displayed an IC50 of 60 nM.
With `CCc1ccccc1-n1nc(C)cc1Oc1ccccc1NC(=O)Nc1ccc(C2CCCCC2)cc1` [Example 108, 1-(4-cyclohexylphenyl)-3-(2-(1-(2-ethylphenyl)-3-methyl-1H-pyrazol-5-yloxy)phenyl)urea] the figure was 12 nM.
The compound `CCc1ccccc1-n1nc(C)cc1Oc1ccccc1NC(=O)Nc1ccc(OC(C)C)cc1` [Example 109, 1-(2-(1-(2-ethylphenyl)-3-methyl-1H-pyrazol-5-yloxy)phenyl)-3-(4-isopropoxyphenyl)urea] returned a concentration for half-maximal inhibition (IC50) of 198 nM.
For `CCc1ccccc1-n1nc(C)cc1Oc1ccccc1NC(=O)Nc1ccc(N2CCCCC2)cc1` [Example 110, 1-(2-(1-(2-ethylphenyl)-3-methyl-1H-pyrazol-5-yloxy)phenyl)-3-(4-(piperidin-1-yl)phenyl)urea], the IC50 was 290 nM.
`CCc1ccccc1-n1nc(C)cc1Oc1ccccc1NC(=O)Nc1ccc(Cl)cc1` [Example 111, 1-(4-chlorophenyl)-3-(2-(1-(2-ethylphenyl)-3-methyl-1H-pyrazol-5-yloxy)phenyl)urea] came in with an IC50 of 133 nM.
With `CCc1ccccc1-n1nc(C)cc1Oc1ccccc1NC(=O)Nc1ccc(-n2cncn2)cc1` [Example 112, 1-(4-(1H-1,2,4-triazol-1-yl)phenyl)-3-(2-(1-(2-ethylphenyl)-3-methyl-1H-pyrazol-5-yloxy)phenyl)urea] the figure was above 10000 nM; with `Cc1cc(Oc2ccccc2NC(=O)Nc2ccc(OC(F)(F)F)cc2)n(-c2ccccc2C(C)C)n1` [Example 113, 1-(2-(1-(2-isopropylphenyl)-3-methyl-1H-pyrazol-5-yloxy)phenyl)-3-(4-(trifluoromethoxy)phenyl)urea], 57 nM.
The compound `Cc1cc(Oc2ccccc2NC(=O)Nc2ccc(OC(F)(F)F)cc2)n(-c2ccc(F)cc2Cl)n1` [Example 114, 1-(2-(1-(2-chloro-4-fluorophenyl)-3-methyl-1H-pyrazol-5-yloxy)phenyl)-3-(4-(trifluoromethoxy)phenyl)urea] had an IC50 of 12 nM.
With `Cc1cc(Oc2ccccc2NC(=O)Nc2ccc(C3CCCCC3)cc2)n(-c2ccc(F)cc2Cl)n1` [Example 115, 1-(2-(1-(2-chloro-4-fluorophenyl)-3-methyl-1H-pyrazol-5-yloxy)phenyl)-3-(4-cyclohexylphenyl)urea] the figure was 18 nM.
With `COC(C)c1ccc(NC(=O)Nc2ccccc2Oc2cc(C)nn2-c2ccccc2Cl)cc1` (stereo not drawn) [Example 116, 1-(2-(1-(2-chlorophenyl)-3-methyl-1H-pyrazol-5-yloxy)phenyl)-3-(4-(1-methoxyethyl)phenyl)urea], the IC50 was determined as 1120 nM.
`Cc1cc(Oc2ccccc2NC(=O)Nc2ccc(C(C)N(C)C)cc2)n(-c2ccccc2Cl)n1` (stereo not drawn) [Example 117, 1-(2-(1-(2-chlorophenyl)-3-methyl-1H-pyrazol-5-yloxy)phenyl)-3-(4-(1-(dimethylamino)ethyl)phenyl)urea] showed an IC50 above 10000 nM.
With `CC(=O)c1ccc(NC(=O)Nc2ccccc2Oc2cc(C)nn2-c2ccccc2Cl)cc1` [Example 118, 1-(4-acetylphenyl)-3-(2-(1-(2-chlorophenyl)-3-methyl-1H-pyrazol-5-yloxy)phenyl)urea] the figure was above 3330 nM; with `CCCc1ccccc1-n1nc(C)cc1Oc1ccccc1NC(=O)Nc1ccc(OC(F)(F)F)cc1` [Example 119, 1-(2-(1-(2-propylphenyl)-3-methyl-1H-pyrazol-5-yloxy)phenyl)-3-(4-(trifluoromethoxy)phenyl)urea], 88 nM.
For `Cc1cc(Oc2ccccc2NC(=O)Nc2ccc(C3CCNCC3)cc2)n(-c2ccccc2Cl)n1` [Example 120, 1-(2-(1-(2-chlorophenyl)-3-methyl-1H-pyrazol-5-yloxy)phenyl)-3-(4-(piperidin-4-yl)phenyl)urea], the IC50 was above 10000 nM.
As for `CC(=O)N1CCC(c2ccc(NC(=O)Nc3ccccc3Oc3cc(C)nn3-c3ccccc3Cl)cc2)CC1` [Example 121, 1-(4-(1-acetylpiperidin-4-yl)phenyl)-3-(2-(1-(2-chlorophenyl)-3-methyl-1H-pyrazol-5-yloxy)phenyl)urea], the IC50 was above 10000 nM.
For the compound `Cc1cc(Oc2ccccc2NC(=O)Nc2ccc(C3CCN(C)CC3)cc2)n(-c2ccccc2Cl)n1` [Example 122, 1-(2-(1-(2-chlorophenyl)-3-methyl-1H-pyrazol-5-yloxy)phenyl)-3-(4-(1-methylpiperidin-4-yl)phenyl)urea], the IC50 was above 10000 nM.
Next, `Cc1cc(Oc2ccccc2NC(=O)Nc2ccc(C3CC3)cc2)n(-c2ccccc2Cl)n1` [Example 123, 1-(2-(1-(2-chlorophenyl)-3-methyl-1H-pyrazol-5-yloxy)phenyl)-3-(4-cyclopropylphenyl)urea]: 121 nM.
As to `Cc1cc(Oc2ccccc2NC(=O)Nc2ccc(C3CCCC3)cc2)n(-c2ccccc2Cl)n1` [Example 124, 1-(2-(1-(2-chlorophenyl)-3-methyl-1H-pyrazol-5-yloxy)phenyl)-3-(4-cyclopentylphenyl)urea], the IC50 came to 32 nM.
The compound `Cc1cc(Oc2ccccc2NC(=O)Nc2ccc(OC(F)(F)F)cc2)n(-c2ccccc2Br)n1` [Example 125, 1-(2-(1-(2-bromophenyl)-3-methyl-1H-pyrazol-5-yloxy)phenyl)-3-(4-(trifluoromethoxy)phenyl)urea] yielded an IC50 of 182 nM.
Next, `Cc1cc(Oc2ccccc2NC(=O)Nc2ccc(Br)cc2)n(-c2ccccc2Cl)n1` [Example 126, 1-(4-bromophenyl)-3-(2-(1-(2-chlorophenyl)-3-methyl-1H-pyrazol-5-yloxy)phenyl)urea]: 170 nM; `Cc1cc(Oc2ccccc2NC(=O)Nc2ccc(C3CCSCC3)cc2)n(-c2ccccc2Cl)n1` [Example 127, 1-(2-(1-(2-chlorophenyl)-3-methyl-1H-pyrazol-5-yloxy)phenyl)-3-(4-(tetrahydro-2H-thiopyran-4-yl)phenyl)urea]: 158 nM.
